Measurements taken from the supplement of paper PMC10307832.

Assays:
Experiment in all cases: relative viability (nuclei count vs DMSO), 5 days (fraction); higher = more cells survive
[1] = compound: C=CC(=O)N1CCC[C@@H](n2nc(-c3ccc(Oc4ccccc4)cc3)c3c(N)ncnc32)C1 [Ibrutinib] + COc1cc2c(Oc3ccc(NC(=O)C4(C(=O)Nc5ccc(F)cc5)CC4)cc3F)ccnc2cc1OCCCN1CCOCC1 [Foretinib] (partner 0.25 µM)
Summary of the method: (§1)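 A single step with final 0.05% Triton X-100, 1% formaldehyde and 1 ug/ml Hoechst fixed the cells and stained nuclei 5 days after treatment. Lung cancer cell lines in 1536-well plates had been treated by pin tool the day after seeding with one drug alone or a fixed anchor-drug dose plus five library-drug doses (not always all listed) in √10 steps, and nuclei were counted on 4× images. Relative viability is the ratio of nuclei in treated wells to nuclei in vehicle wells, taken as the median of duplicate plates.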

[2] = compound: C=CC(=O)Nc1cc(-n2c(=O)ccc3cnc4ccc(-c5ccc(NS(C)(=O)=O)cc5)cc4c32)ccc1C [BMX-IN-1] + Nc1nc2[nH]cc(CCc3ccc(C(=O)N[C@@H](CCC(=O)O)C(=O)O)cc3)c2c(=O)[nH]1 [Pemetrexed] (partner 0.2 µM)
Summary of the method: as §1

[3] = compound: C=CCc1cccc(/C=N/NC(=O)CN2CCN(Cc3ccccc3)CC2)c1O [PAC-1] + Cc1cc(Nc2cc(N3CCN(C)CC3)nc(Sc3ccc(NC(=O)C4CC4)cc3)n2)n[nH]1 [Tozasertib] (partner 0.1 µM)
Summary of the method: as §1

[4] = compound: C=CCc1cccc(/C=N/NC(=O)CN2CCN(Cc3ccccc3)CC2)c1O [PAC-1] + Nc1ncn([C@H]2C[C@H](O)[C@@H](CO)O2)c(=O)n1 [Decitabine] (partner 2 µM)
Summary of the method: as §1

## NCI-H1651
[1]; first compound 0.005 µM
  relative viability: 0.928
[1]; first compound 0.01581 µM
  relative viability: 0.931
[1]; first compound 0.05 µM
  relative viability: 0.896
[1]; first compound 0.1581 µM
  relative viability: 0.882
[1]; first compound 0.5 µM
  relative viability: 0.615
[2]; first compound 0.02 µM
  relative viability: 0.391
[2]; first compound 0.2 µM
  relative viability: 0.642
[2]; first compound 0.6325 µM
  relative viability: 0.781
[2]; first compound 2 µM
  relative viability: 0.486
[3]; first compound 0.02 µM
  relative viability: 0.615
[3]; first compound 0.06325 µM
  relative viability: 0.786
[3]; first compound 0.2 µM
  relative viability: 0.631
[3]; first compound 2 µM
  relative viability: 0.65
[4]; first compound 0.02 µM
  relative viability: 0.649
[4]; first compound 0.06325 µM
  relative viability: 0.552
[4]; first compound 0.2 µM
  relative viability: 0.39
[4]; first compound 2 µM
  relative viability: 0.675

## NCI-H2170
[1]; first compound 0.005 µM
  relative viability: 1.06
[1]; first compound 0.01581 µM
  relative viability: 0.858
[1]; first compound 0.05 µM
  relative viability: 0.951
[1]; first compound 0.1581 µM
  relative viability: 1.01
[1]; first compound 0.5 µM
  relative viability: 0.377
[2]; first compound 0.02 µM
  relative viability: 0.273
[2]; first compound 0.2 µM
  relative viability: 0.285
[2]; first compound 0.6325 µM
  relative viability: 0.319
[2]; first compound 2 µM
  relative viability: 0.243
[3]; first compound 0.02 µM
  relative viability: 0.693
[3]; first compound 0.06325 µM
  relative viability: 0.776
[3]; first compound 0.2 µM
  relative viability: 0.805
[3]; first compound 2 µM
  relative viability: 0.712
[4]; first compound 0.02 µM
  relative viability: 0.477
[4]; first compound 0.06325 µM
  relative viability: 0.493
[4]; first compound 0.2 µM
  relative viability: 0.42
[4]; first compound 2 µM
  relative viability: 0.453

## NCI-H1650
[1]; first compound 0.005 µM
  relative viability: 1.01
[1]; first compound 0.01581 µM
  relative viability: 0.793
[1]; first compound 0.05 µM
  relative viability: 0.934
[1]; first compound 0.5 µM
  relative viability: 0.732
[2]; first compound 0.02 µM
  relative viability: 0.354
[2]; first compound 0.2 µM
  relative viability: 0.354
[2]; first compound 0.6325 µM
  relative viability: 0.541
[2]; first compound 2 µM
  relative viability: 0.325
[3]; first compound 0.02 µM
  relative viability: 0.361
[3]; first compound 0.06325 µM
  relative viability: 0.393
[3]; first compound 0.2 µM
  relative viability: 0.522
[3]; first compound 2 µM
  relative viability: 0.375
[4]; first compound 0.02 µM
  relative viability: 0.447
[4]; first compound 0.06325 µM
  relative viability: 0.441
[4]; first compound 0.2 µM
  relative viability: 0.344
[4]; first compound 2 µM
  relative viability: 0.371

## LK-2
[1]; first compound 0.05 µM
  relative viability: 1.32
[1]; first compound 0.1581 µM
  relative viability: 1.27
[1]; first compound 0.5 µM
  relative viability: 0.996
[2]; first compound 0.02 µM
  relative viability: 0.163
[2]; first compound 0.2 µM
  relative viability: 0.256
[2]; first compound 0.6325 µM
  relative viability: 0.254
[2]; first compound 2 µM
  relative viability: 0.225
[3]; first compound 0.02 µM
  relative viability: 0.174
[3]; first compound 0.06325 µM
  relative viability: 0.186
[3]; first compound 0.2 µM
  relative viability: 0.199
[3]; first compound 2 µM
  relative viability: 0.175
[4]; first compound 0.02 µM
  relative viability: 0.328
[4]; first compound 0.06325 µM
  relative viability: 0.284
[4]; first compound 0.2 µM
  relative viability: 0.264
[4]; first compound 2 µM
  relative viability: 0.335

## NCI-H2009
[1]; first compound 0.005 µM
  relative viability: 1.31
[1]; first compound 0.01581 µM
  relative viability: 1.21
[1]; first compound 0.05 µM
  relative viability: 1.14
[1]; first compound 0.1581 µM
  relative viability: 1.19
[1]; first compound 0.5 µM
  relative viability: 1.26
[2]; first compound 0.02 µM
  relative viability: 1.08
[2]; first compound 0.2 µM
  relative viability: 1.06
[2]; first compound 0.6325 µM
  relative viability: 1.09
[2]; first compound 2 µM
  relative viability: 1.07
[3]; first compound 0.02 µM
  relative viability: 0.816
[3]; first compound 0.06325 µM
  relative viability: 0.715
[3]; first compound 0.2 µM
  relative viability: 0.698
[3]; first compound 2 µM
  relative viability: 0.696
[4]; first compound 0.02 µM
  relative viability: 0.377
[4]; first compound 0.06325 µM
  relative viability: 0.339
[4]; first compound 0.2 µM
  relative viability: 0.316
[4]; first compound 2 µM
  relative viability: 0.354

## NCI-H2347
[1]; first compound 0.01581 µM
  relative viability: 0.811
[1]; first compound 0.05 µM
  relative viability: 0.8
[1]; first compound 0.5 µM
  relative viability: 0.725
[2]; first compound 0.02 µM
  relative viability: 0.412
[2]; first compound 0.2 µM
  relative viability: 0.298
[2]; first compound 0.6325 µM
  relative viability: 0.417
[2]; first compound 2 µM
  relative viability: 0.397
[3]; first compound 0.02 µM
  relative viability: 0.534
[3]; first compound 0.06325 µM
  relative viability: 0.572
[3]; first compound 0.2 µM
  relative viability: 0.576
[3]; first compound 2 µM
  relative viability: 0.511
[4]; first compound 0.02 µM
  relative viability: 0.637
[4]; first compound 0.06325 µM
  relative viability: 0.598
[4]; first compound 0.2 µM
  relative viability: 0.606
[4]; first compound 2 µM
  relative viability: 0.621

## NCI-H460
[1]; first compound 0.005 µM
  relative viability: 1.06
[1]; first compound 0.01581 µM
  relative viability: 0.909
[1]; first compound 0.1581 µM
  relative viability: 1.01
[1]; first compound 0.5 µM
  relative viability: 0.992
[2]; first compound 0.02 µM
  relative viability: 0.0558
[2]; first compound 0.2 µM
  relative viability: 0.0711
[2]; first compound 0.6325 µM
  relative viability: 0.0676
[2]; first compound 2 µM
  relative viability: 0.071
[3]; first compound 0.02 µM
  relative viability: 0.356
[3]; first compound 0.06325 µM
  relative viability: 0.453
[3]; first compound 0.2 µM
  relative viability: 0.394
[3]; first compound 2 µM
  relative viability: 0.542
[4]; first compound 0.02 µM
  relative viability: 0.436
[4]; first compound 0.06325 µM
  relative viability: 0.424
[4]; first compound 0.2 µM
  relative viability: 0.242
[4]; first compound 2 µM
  relative viability: 0.451

## LC-2-ad
[1]; first compound 0.005 µM
  relative viability: 0.958
[1]; first compound 0.01581 µM
  relative viability: 0.747
[1]; first compound 0.05 µM
  relative viability: 0.856
[1]; first compound 0.1581 µM
  relative viability: 0.886
[1]; first compound 0.5 µM
  relative viability: 0.836
[2]; first compound 0.02 µM
  relative viability: 0.265
[2]; first compound 0.2 µM
  relative viability: 0.28
[2]; first compound 0.6325 µM
  relative viability: 0.277
[2]; first compound 2 µM
  relative viability: 0.281
[3]; first compound 0.02 µM
  relative viability: 0.456
[3]; first compound 0.06325 µM
  relative viability: 0.48
[3]; first compound 0.2 µM
  relative viability: 0.357
[3]; first compound 2 µM
  relative viability: 0.449
[4]; first compound 0.02 µM
  relative viability: 0.827
[4]; first compound 0.06325 µM
  relative viability: 0.75
[4]; first compound 0.2 µM
  relative viability: 0.779
[4]; first compound 2 µM
  relative viability: 0.672

## NCI-H596
[1]; first compound 0.01581 µM
  relative viability: 0.808
[1]; first compound 0.05 µM
  relative viability: 0.803
[1]; first compound 0.1581 µM
  relative viability: 0.793
[1]; first compound 0.5 µM
  relative viability: 0.567
[2]; first compound 0.02 µM
  relative viability: 0.497
[2]; first compound 0.2 µM
  relative viability: 0.522
[2]; first compound 0.6325 µM
  relative viability: 0.496
[2]; first compound 2 µM
  relative viability: 0.511
[3]; first compound 0.02 µM
  relative viability: 0.903
[3]; first compound 0.06325 µM
  relative viability: 0.885
[3]; first compound 0.2 µM
  relative viability: 0.857
[3]; first compound 2 µM
  relative viability: 1.01
[4]; first compound 0.02 µM
  relative viability: 0.915
[4]; first compound 0.06325 µM
  relative viability: 1
[4]; first compound 0.2 µM
  relative viability: 0.93
[4]; first compound 2 µM
  relative viability: 0.942
